The text below walks through data of publication PMC9143562, “Hydrophilic CO-Releasing Material of PEGlyated Ruthenium Carbonyl Complex” (Materials, 2022).

The conditions of series [1]: cited from earlier work.
Series [2] deals with acute hepatic ischemia-reperfusion injury. On the set-up: method as in PMID 20444253, PMID 21270767. The note with it: rats; serum AST/ALT, liver histology score; cited from earlier work.
For series [3] the following is noted: human plasma; cited from earlier work.
Series [4] is described as follows: logP by flask-shaking method (n-octanol/water, UV-vis). It is filed as physicochemical. The conditions noted are these: for logP: oil-water partition coefficient, n-octanol/water, by UV-vis. As for the experimental part: To identify the structural features of CO-RMs that govern the CO releasing behaviour, the CO release kinetics of 4–15 were correlated to the corresponding M-CO band and lipophilicity in Table 2. Firstly, the oil-water partition coefficient logP values of complexes were measured by the “flask-shaking” method with n-octanol and water, respectively. […] The water-solubility of these sawhorse ruthenium complexes mainly depend on both the axial glycol amino esters and bridging carboxylate, respectively. […]
4. Water-solubility Measured by the ﬂask - shaking method
The lipophilicity of complexes was measured by the ﬂask- shaking method where n-octanol and ultrapure water were used as the organic and aqueous phase respectively. First, make the pre saturated of oil-water two phase. Then the tested complex was dissolved in the isolated organic phase at a concentration of 1mg/mL, take 2 mL of liquld and 8mL aqueous phase was joined, the mixture was swirled for 12h at room temperature. The solution was then centrifuged, and the amounts of complex in organic layers were determined by UV-vis. Drawing standard curve and determination of oil-water partition coefficient. […]
5.4 UV-vis spectra of Lipophilicity (log Po/w)
Table S3. Stand curve measurement and calculation of Log P
Entry Standard curve equation Correlation coefficient(R2) […]

Series [5] has as its system myoglobin (lyophilised horse heart). In words: Photo-activated CO release, myoglobin assay. The conditions noted are these: CO release half-life, 60 µM CO-RM, LED-UV 365 nm, PBS pH 7.4. As for the experimental part:
The CO release activity of each CO-RM […] was measured with the “golden standard” of myoglobin assay. Firstly, sodium dithionite was added to reduce myoglobin to deoxy-myoglobin (deoxyMb) in PBS (pH = 7.4) at 37.8 °C. A stock solution of CO-RM was added and then activated by LED-UV radiation at 365 nm, releasing CO […]. The change of deoxyMb to carbonmonoxy-myoglobin (MbCO) was monitored by UV-vis spectroscopy. […] The half-lives of CO release rate of 4 at 60 µM is 166 s, 40 µM is 172 s, and 20 µM is 267 s. […]
3. CO-Release Measured by Standard Myoglobin Assay
The release of CO from the metal carbonyl compounds was studied by measuring the conversion of deoxy-myoglobin (deoxy-Mb) to carboxy-myoglobin (Mb-CO). The amount of Mb-CO formed was quantified by measuring the absorbance at 540 nm. […] A 2 mL quantity of this was measured to obtain a deoxy-Mb spectrum and then bubbled with CO to get a Mb-CO spectrum. […] The concentration of myoglobin in the stock solution was calculated from the maximal absorption peak of the Mb-CO solution at 540 nm (Equation 1).
Equation 1. Equation for calculating total myoglobin concentration in a saturated solution of Mb-CO; ε = extinction coefficient of Mb-CO=15.4 mM-1cm-1, OD540 = absorbance of Mb-CO solution […]
Intermediate concentrations of Mb-CO are calculated from the OD540. […] The new extinction coefficient was calculated (Equation 2). […]

With `[C-]#[O+].[C-]#[O+].[C-]#[O+].[C-]#[O+].[C-]#[O+].[C-]#[O+].[Cl][Ru][Cl].[Cl][Ru][Cl]` [CO-RM-02, [Ru(CO)3Cl2]2], the “solubility in aqueous systems” value in series [1] was “poor solubility”. Besides, the “effect on acute hepatic ischemia-reperfusion injury” value in series [2] was “attenuated acute hepatic ischemia-reperfusion injury in rats”.

In the case of `NCC(=O)O.[C-]#[O+].[C-]#[O+].[C-]#[O+].[Cl][Ru]` [CO-RM-03, [Ru(CO)3Cl(glycinate)]], in series [3], the “half-life of CO release” value is reported as 3.6 min.

Turning to “[Ru2(CO)4(µ2-ŋ2-O2C-C14H9)2 (ŋ1-NH2CH2C(=O)OCH2CH2OCH3)2] [CO-RM 15]”, in series [4], the logP (commonly the decadic logarithm of the partition coefficient of the neutral form, usually between octanol and water) is on record as “too hydrophobic to be evaluated”.

Turning to “[Ru2(CO)4(µ2-ŋ2-O2C-p-ClC6H5)2 (ŋ1-NH2CH2C(=O)OCH2CH2OCH3)2] [CO-RM 13]”, in series [4] (concentration in n-octanol phase, UV-vis), the Coctanol was 0.9201 mmol/L. This compound showed a Cwater in series [4] (concentration in water phase) of 0.05055 mmol/L. In series [4], the logP amounted to 1.26. Also, in series [5], the “t1/2, 60 µM” value worked out at 16.1 min.
